Measurements: publication PMC11505594, “Design, Synthesis, and Anti-Melanogenic Activity of 2-Mercaptomethylbenzo[d]imidazole Derivatives Serving as Tyrosinase Inhibitors: An In Silico, In Vitro, and In Vivo Exploration” (Antioxidants, 2024)
“Also recorded” adds a separate entry of the source. Where two headings read alike, the source gives them in different places.

Tests used:
mushroom TYR [1] = molecular target: T1, mushroom TYR (Agaricus bisporus, UniProt C7FF04); assay: Kinetic studies on mushroom TYR (Lineweaver–Burk and Dixon plots); type: biochemical; conditions: L-dopa as substrate
T1 sequence (C7FF04 2-392): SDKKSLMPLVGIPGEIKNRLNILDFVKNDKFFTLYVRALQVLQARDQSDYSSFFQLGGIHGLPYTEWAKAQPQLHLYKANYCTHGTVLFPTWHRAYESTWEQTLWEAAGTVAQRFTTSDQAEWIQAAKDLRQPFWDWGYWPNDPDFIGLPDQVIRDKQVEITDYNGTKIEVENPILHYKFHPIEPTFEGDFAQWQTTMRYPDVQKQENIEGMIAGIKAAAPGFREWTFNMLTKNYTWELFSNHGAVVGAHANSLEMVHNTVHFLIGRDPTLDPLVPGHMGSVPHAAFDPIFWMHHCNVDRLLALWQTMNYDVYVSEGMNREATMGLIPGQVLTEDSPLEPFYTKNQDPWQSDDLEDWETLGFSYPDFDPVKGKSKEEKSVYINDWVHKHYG
Protocol: Kinetic experiments were performed to obtain Lineweaver–Burk plots for the analysis of mushroom TYR kinetics. Mushroom TYR solution (20 μL, 150 units/mL) was added to each well of a 96-well microplate containing 2-MMBI derivatives (10 μL; 0, 7.5, 15, and 30 μM for 1; 0, 5, 10, and 20 μM for 3 and 8; and 0, 12.5, 25, and 50 μM for 9) and a substrate solution (170 μL) composed of sodium phosphate buffer (17.2 mM; pH 6.5) and L-dopa (various concentrations: 0.5, 1, 2, 4, 8, and 16 mM). […] Lineweaver–Burk plots for each 2-MMBI derivative were obtained by plotting the value of 1/[substrate] against the value of (min/ΔOD475). Lineweaver–Burk plots were transformed into corresponding Dixon plots by plotting the value of (min/ΔOD475) against the value of the 2-MMBI derivative concentration.

B16F10 cells = assay: Melanin content measurement assay in B16F10 cells; type: cell-based, murine; conditions: α-MSH 1 μM plus IBMX 200 μM, 72 h; for effect on B16F10 cellular melanin production at three concentrations: 2, 5, and 10 μM
Protocol: A 6-well plate containing 5 × 10^3 B16F10 cells per well was incubated at 37 °C and 5% CO2 for 1 day. […] After 1 h, 1 μM α-MSH and 200 μM IBMX were added to each well, and the plate was subsequently incubated at 37 °C and 5% CO2 for 72 h. The cells were exposed to […] 1N-NaOH solution and cultured at 60 °C for 1 h after washing with PBS. The lysates were transferred to each well of a 96-well plate, and the optical density at 405 nm was recorded using a VersaMax™ reader. […] Each assay was independently performed three times.

zebrafish larvae = assay: Melanogenesis (depigmentation) assay using zebrafish embryos; type: in vivo; conditions: for depigmentation of zebrafish larvae at 0.1 mM / depigmentation of zebrafish larvae at 0.03 mM: compared with kojic acid 20 mM; for pigmentation area of zebrafish larvae (CS analyzer, dorsal and lateral views): derivatives 0.03 and 0.1 mM, kojic acid 20 mM
Protocol: To assess depigmentation in vivo, wild-type zebrafish (Danio rerio) embryos were acquired free of charge from the Zebrafish Center for Disease Modeling (ZCDM) located at Chungnam National University in Daejeon, Republic of Korea. The zebrafish were raised in tanks maintained at 28 °C in the ZCDM. The tanks were oxygenated, and the tank lights were turned off for 10 h and on for 14 h. The zebrafish embryos used for in vivo depigmentation experiments were obtained through natural mating. The E3 solution for zebrafish embryos was prepared by dissolving 19.9 mg magnesium sulfate, 6.4 mg potassium chloride, 18.3 mg calcium chloride, and 146.1 mg sodium chloride in 500 mL distilled water. E3-MB (methylene blue) solution was prepared by adding MB to the E3 solution to create a 0.001% MB solution. The acquired zebrafish embryos were transferred to a culture dish containing the E3-MB solution. The culture dish was incubated at 28 °C until zebrafish embryos were used. Since zebrafish embryos are sensitive and can be easily killed by the chorion removal process 20 h post-fertilization (20 hpf), the chorion was removed at 24 hpf through treatment with pronase (Sigma-Aldrich, St. Louis, MO, USA). Five dechorionated zebrafish embryos were transferred to each well of 48-well microplates containing 250 μL E3 solution. […] Zebrafish larvae were anesthetized with tricaine at 76 hpf and placed on a 1% methylcellulose block to determine the degree of zebrafish larva depigmentation. Dorsal and lateral images of the zebrafish larvae were acquired using an SMZ745T microscope (Nikon, Tokyo, Japan). The pigmented areas of the dorsal and lateral images were obtained using CS analyzer 3.0 image analysis software (ATTO, Tokyo, Japan). Each assay (n = 7) was independently performed two times.

mushroom TYR [2] = molecular target: T1, mushroom TYR; assay: Mushroom TYR activity assay with and without CuSO4; type: biochemical; conditions: 20 μM derivative, L-tyrosine
Protocol: To determine whether copper(II) ions influence the TYR-inhibitory activity of 2-MMBI derivatives, the effects of these derivatives on mushroom TYR activity were measured with and without CuSO4. Briefly, mushroom TYR aqueous solution (20 μL, 1 unit/μL) was mixed with 2-MMBI derivatives (1, 3, and 8–10) (10 μL, final concentration: 20 μM) and with the substrate solution (170 μL), comprising 17.2 mM phosphate buffer (pH 6.5) and 345 μM L-tyrosine, in the presence or absence of CuSO4 (50 μL, final concentration: 50 μM) in each well of a 96-well plate. […] Each assay was carried out independently in triplicate.

[3] = Reactive oxygen species removal activity assay (SIN-1, DCFH); conditions: test samples 40 μM; SIN-1 10 μM
Protocol: To assess reactive oxygen species (ROS) removal activity, a DCFH solution was prepared by mixing 50 μL DCFH-DA (1.25 mM), 50 μL esterase (0.6 unit/μL), and 4.9 mL phosphate buffer (50 mM) and maintained in the dark for 30 min. The SIN-1 solution (10 μL) was added to each well of a 96-black well that contained the test sample (10 μL; 2-MMBI derivatives 1–10 and Trolox [positive material]) and phosphate buffer (180 μL). 2-MMBI derivatives, Trolox, and SIN-1 were exposed at final concentrations of 40, 40, and 10 μM, respectively. The prepared DCFH solution (50 μL) was added to each well after 10 min. The fluorescence intensity of 2′,7′-dichlorofluorescein in the wells was measured at 535 nm using a microplate reader (Berthold Advances GmbH & Co., Bad Wildbad, Germany) with an excitation wavelength of 485 nm. Each experiment was conducted independently four times.

B16F10 cellular TYR = molecular target: T2, B16F10 cellular TYR (Mus musculus, UniProt P11344); assay: TYR activity assay in B16F10 cells; type: cell-based, murine; conditions: 2, 5, and 10 μM; α-MSH 1 μM plus IBMX 200 μM; 72 h
T2 construct: The in situ cellular TYR activities of the 2-MMBI derivatives were investigated using B16F10 cells; endogenous in cells; host or cells: B16F10 murine melanoma cells stimulated with alpha-MSH and IBMX
T2 sequence (P11344 19-533): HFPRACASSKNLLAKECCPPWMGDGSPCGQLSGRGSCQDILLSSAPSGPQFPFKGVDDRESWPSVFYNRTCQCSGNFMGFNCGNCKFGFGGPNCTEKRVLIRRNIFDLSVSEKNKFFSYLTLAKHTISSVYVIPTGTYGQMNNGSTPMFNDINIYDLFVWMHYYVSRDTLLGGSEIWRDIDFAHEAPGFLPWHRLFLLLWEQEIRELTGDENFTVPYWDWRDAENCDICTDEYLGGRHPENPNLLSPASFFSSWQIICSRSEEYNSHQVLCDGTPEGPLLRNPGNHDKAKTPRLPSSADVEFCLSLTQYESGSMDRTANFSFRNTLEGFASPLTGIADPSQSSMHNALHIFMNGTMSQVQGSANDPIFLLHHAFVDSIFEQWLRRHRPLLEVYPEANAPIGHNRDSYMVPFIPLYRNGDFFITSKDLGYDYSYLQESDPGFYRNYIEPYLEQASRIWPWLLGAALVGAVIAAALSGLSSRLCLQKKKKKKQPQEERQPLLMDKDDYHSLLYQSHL
Protocol: A 6-well plate containing 5 × 10^3 B16F10 cells per well was incubated (37 °C and 5% CO2) for 1 day. […] Stimulators (1 μM α-MSH and 200 μM IBMX) were added after 1 h, and the plate was incubated (37 °C and 5% CO2) for 72 h. After washing with PBS, 100 μL lysis buffer consisting of 1% Triton X-100, 1 mM phenylmethylsulfonyl fluoride, and 50 mM sodium phosphate buffer (pH 6.5) in a volume ratio of 1:1:18 was added to each well. Following an incubation period of 30 min at −80 °C, the cell lysates were centrifuged at 12,000× g for 10 min at 4 °C to obtain the supernatants. […] Each assay was independently performed three times.

B16F10 cell TYR = molecular target: T3, B16F10 cell TYR (Mus musculus, UniProt P11344); assay: In situ B16F10 cellular TYR activity assay (L-dopa staining); type: cell-based, murine; conditions: α-MSH plus IBMX 72 h; for in situ B16F10 cell TYR activity (cell staining), concentration series: 2, 5, and 10 μM
T3 construct: The in situ cellular TYR activities of the 2-MMBI derivatives were investigated using B16F10 cells; endogenous in cells; host or cells: B16F10 murine melanoma cells stimulated with alpha-MSH and IBMX
T3 sequence (P11344 19-533): T2 sequence (P11344 19-533)
Protocol: B16F10 cells (2 × 10^3/well) were inoculated in each well of a 24-well microplate and cultured for 1 day in an incubator (37 °C and 5% CO2). […] Subsequently, stimulators (α-MSH [1 μM] and IBMX [200 μM]) were added to each well. […] Stained photographs were captured using a camera attached to a microscope (Motic, Hong Kong, China). Each assay was independently performed two times.

[4] = CuSO4 50 μM added externally, read-out: inhibition of mushroom TYR activity with CuSO4
[5] = no CuSO4 added externally, read-out: inhibition of mushroom TYR activity without CuSO4
[6] = 0.03 and 0.1 mM, 48 h exposure from 28 hpf

Row | inhibition mechanism (mushroom TYR [1]) | inhibition at 20 µM (mushroom TYR [2]; [4]) [%] | inhibition at 20 µM (mushroom TYR [2]; [5]) [%] | Compound | effect on B16F10 cellular melanin production at 10 μM (B16F10 cells) | effect on B16F10 cellular TYR activity (B16F10 cellular TYR) | effect on B16F10 cellular melanin production at three concentrations (B16F10 cells) | further results
1 | competitive TYR inhibitors | 76 | 86 to 89 | SCc1nc2ccccc2[nH]1 [Derivative 1, (1H-Benzo[d]imidazol-2-yl)methanethiol] | relatively low melanin inhibitory effect |  |  | depigmentation of zebrafish larvae at 0.1 mM (zebrafish larvae; 0.1 mM, 48 h): much more potent inhibition of melanin production in zebrafish larvae than kojic acid; pigmentation area of zebrafish larvae (CS analyzer, dorsal and lateral views) (zebrafish larvae): reduced the pigmentation area more strongly than kojic acid in a concentration-dependent manner
2 | mixed TYR inhibitors | 54 | 86 to 89 | Cc1cccc2[nH]c(CS)nc12 [Derivative 9, (4-Methyl-1H-benzo[d]imidazol-2-yl)methanethiol] |  |  |  | 
3 |  | 1 | 60 | Cc1cc2nc(CS)[nH]c2cc1C [Derivative 10, (5,6-Dimethyl-1H-benzo[d]imidazol-2-yl)methanethiol] | inhibited melanin production more strongly than kojic acid | significantly reduced stimulator-enhanced cellular TYR activity in a dose-dependent manner | significantly decreased the melanin levels increased by the stimulators in a concentration-dependent manner | in situ B16F10 cell TYR activity (cell staining) at 10 μM (B16F10 cell TYR): inhibited in situ B16F10 cell TYR activity much more potently than kojic acid; in situ B16F10 cell TYR activity (cell staining), concentration series (B16F10 cell TYR): reduced the increase in cell staining induced by α-MSH and IBMX in a concentration-dependent manner

The next lines start with the compound.

Row | Compound | inhibition mechanism (mushroom TYR [1]) | inhibition at 20 µM (mushroom TYR [2]; [4]) [%] | inhibition at 20 µM (mushroom TYR [2]; [5]) [%] | effect on B16F10 cellular melanin production at 10 μM (B16F10 cells) | effect on B16F10 cellular TYR activity (B16F10 cellular TYR) | effect on B16F10 cellular melanin production at three concentrations (B16F10 cells) | further results
4 | SCc1nc2cc(Cl)ccc2[nH]1 [Derivative 2, (5-Chloro-1H-benzo[d]imidazol-2-yl)methanethiol] |  |  |  |  |  |  | ROS scavenging activity [3]: stronger ROS scavenging efficacy than the other derivatives; depigmentation of zebrafish larvae at 0.03 mM (zebrafish larvae; 48 h): much stronger depigmentation efficacy than kojic acid; zebrafish larvae death at 0.1 mM (zebrafish larvae; 0.1 mM, 48 h exposure from 28 hpf): died
5 | COc1ccc2[nH]c(CS)nc2c1 [Derivative 3, (5-Methoxy-1H-benzo[d]imidazol-2-yl)methanethiol] | competitive TYR inhibitors | 34 | 86 to 89 | inhibited melanin production more strongly than kojic acid | significantly reduced stimulator-enhanced cellular TYR activity in a dose-dependent manner | significantly decreased the melanin levels increased by the stimulators in a concentration-dependent manner | depigmentation of zebrafish larvae at 0.03 mM (zebrafish larvae; 48 h): much stronger depigmentation efficacy than kojic acid; depigmentation of zebrafish larvae at 0.1 mM (zebrafish larvae; 0.1 mM, 48 h): much more potent inhibition of melanin production in zebrafish larvae than kojic acid; pigmentation area of zebrafish larvae (CS analyzer, dorsal and lateral views) (zebrafish larvae): reduced the pigmentation area more strongly than kojic acid in a concentration-dependent manner
6 | Fc1ccc2[nH]c(CS)nc2c1 [Derivative 4, (5-Fluoro-1H-benzo[d]imidazol-2-yl)methanethiol] |  |  |  |  |  |  | zebrafish larvae death (zebrafish larvae; [6]): all zebrafish larvae died at the tested concentrations
7 | N#Cc1ccc2[nH]c(CS)nc2c1 [Derivative 5, 2-(Mercaptomethyl)-1H-benzo[d]imidazole-5-carbonitrile] |  |  |  |  |  |  | depigmentation of zebrafish larvae at 0.03 and 0.1 mM (zebrafish larvae; 0.03 and 0.1 mM, 48 h): did not exhibit significant depigmentation
8 | FC(F)(F)c1ccc2[nH]c(CS)nc2c1 [Derivative 7, (5-(Trifluoromethyl)-1H-benzo[d]imidazol-2-yl)methanethiol] |  |  |  | inhibited melanin production more strongly than kojic acid; also recorded: strongest melanin inhibitory effect | significantly reduced stimulator-enhanced cellular TYR activity in a dose-dependent manner | significantly decreased the melanin levels increased by the stimulators in a concentration-dependent manner; also recorded: potently reduced the stimulator-induced increase in melanin content to the levels observed in the control group | in situ B16F10 cell TYR activity (cell staining) at 10 μM (B16F10 cell TYR): inhibited in situ B16F10 cell TYR activity much more potently than kojic acid; in situ B16F10 cell TYR activity (cell staining), concentration series (B16F10 cell TYR): reduced the increase in cell staining induced by α-MSH and IBMX in a concentration-dependent manner; ROS scavenging activity [3]: stronger ROS scavenging efficacy than the other derivatives; zebrafish larvae death (zebrafish larvae; [6]): all zebrafish larvae died at the tested concentrations
